According to patent publication US20070167492A1, “Molluscicidal agents” (priority 2003, published 2007):

Experiments:
Assay type in all cases: in vivo
[1] = test system: Deroceras reticulatum (grey field slug); test: Example 2: pot re-test, treated winter wheat seed with 5 adult slugs per pot, 7 days
Excerpt: Based on the results of the experiment described in Example 1, a selection was made from the various test numbers of that experiment for re-testing, partly to confirm the conclusions of that experiment and to test the unexpected outcome of some test compounds.
The selection of test numbers (Test No.) used in the present experiment relative to those of the experiment described in Example 1 is shown in Table 7.
The same seeds as described in Example 1 were sown in earthenware pots with an internal diameter of 20 cm and a height of 18 cm, filled with 7 cm of potting soil (Trio BV, Weesp, The Netherlands) and with a top 2 cm of white quartz sand. A total of 40 winter wheat seeds was placed in each pot, in a pattern of concentric circles on top of the quartz sand, the germ of the seed facing upwards. To each pot a total of 5 adult specimens of the test slug Deroceras reticulatum (grey field slug) were added. The pots were incubated at 18-19° C. with a relative humidity of ±95% and light regime of ±18 hours light/6 hours dark, without artificial lighting. The pots were not irrigated overhead. In total, 4 parallel tests were performed for each test.
The number of damaged seeds was, the number of plants present (germinated and not eaten or damaged by the slugs), the number of dead slugs and of the number of fecal pellets were determined after 2, 3 and 7 days following the addition of the slugs.
(§1) The data were statistically analysed by using F-tests (α=0.05) and pair-wise Student-tests.

[2] = test system: Deroceras reticulatum (grey field slug); test: Example 1: pot test, treated winter wheat seed with 5 adult slugs per pot, 14 days
Protocol: (§2) Winter wheat (Kampa race; thousand grain weight of 51 grams) was used in an experiment to test the efficacy of the compositions of the present inventions in relation to known molluscicidal compounds. The seeds were disinfected for soil and germ moulds with 2 ml of Beret Gold (comprising 25 g/l of the fungicide fludioxonil) per kg of seed.
(§3) Sepiret® was added to all dry disinfections, and is the coating that was added to all agents of which the formulation was not suitable for coating.
The seeds were sown in earthenware pots with an internal diameter of 20 cm and a height of 18 cm, filled with 7 cm of potting soil (Trio BV, Weesp, The Netherlands) and with a top 2 cm of white quartz sand. A total of 40 seeds was placed in each pot, in a pattern of concentric circles on top of the quartz sand, the germ facing upwards. To each pot a total of 5 adult specimens of the test slug Deroceras reticulatum (grey field slug) were added. The pots were incubated at ±15° C. with a relative humidity of ±90% and light regime of ±12 hours light/12 hours dark, without artificial lighting. The pots were not irrigated overhead. In total, 4 parallel tests were performed for each test.
Following the addition of the slugs, the number of damaged seeds was counted after 2, 3, 7, 10 and 14 days. The number of plants present (germinated and not eaten or damaged by the slugs) was determined 3, 7, 10 and 14 days after the start of the test. […] The number of dead slugs was counted 2, 3, 7, 10 and 14 days after the start of the test (but not removed). Finally, on days 3, 7, 10 and 14 after the start of the test, the number fecal pellets was counted.
as §1

[3] = test system: Winter wheat (Kampa race) seeds; test: Seed germination test of treated winter wheat seeds (rolled in paper); conditions: 3x50 seeds, 6 days at 22° C.
Protocol: as §2, §3
Table 2 provides an overview of the amounts of diluent water and Sepiret® used for treating the wheat seeds. Table 2 further provides the quality of the coating and the percentages of germinating seeds in a seed germination test. In this test, the percentage of germination of 3×50 seeds, rolled in paper, was determined after 6 days at 22° C. (continuously) and a 16 hours light regime.

[4] = Example 2, 2 ml formulated per kg seed, 2 days after sowing
[5] = Example 2, 2 ml formulated per kg seed, 3 days after sowing
[6] = Example 2, 2 ml formulated per kg seed, 7 days after sowing
[7] = Example 2, 4 ml formulated per kg seed, 2 days after sowing
[8] = Example 2, 4 ml formulated per kg seed, 3 days after sowing
[9] = Example 2, 4 ml formulated per kg seed, 7 days after sowing
[10] = Example 2, after 2, 3 and 7 days
[11] = 2 ml formulated per kg seed, 2 days after sowing
[12] = 2 ml formulated per kg seed, 3 days after sowing
[13] = 2 ml formulated per kg seed, 7 days after sowing
[14] = 2 ml formulated per kg seed, 10 days after sowing
[15] = 2 ml formulated per kg seed, 14 days after sowing
[16] = 4 ml formulated per kg seed, 2 days after sowing
[17] = 4 ml formulated per kg seed, 3 days after sowing
[18] = 4 ml formulated per kg seed, 7 days after sowing
[19] = 4 ml formulated per kg seed, 10 days after sowing
[20] = 4 ml formulated per kg seed, 14 days after sowing
[21] = 8 ml formulated per kg seed, 2 days after sowing
[22] = 8 ml formulated per kg seed, 3 days after sowing
[23] = 8 ml formulated per kg seed, 7 days after sowing
[24] = 8 ml formulated per kg seed, 10 days after sowing
[25] = 8 ml formulated per kg seed, 14 days after sowing

For CNC(=O)Oc1cc(C)c(SC)c(C)c1 [methiocarb, 4-methylthio-3,5-xylyl methylcarbamate], the “dead slugs observed during the course of the experiment” value ([1]; Example 2) was “More dead slugs”, the “result of seed treatment against slugs (conclusion)” value ([1]; Example 2) was “fairly food protection of the seeds against slugs” and the “percentage of damaged seeds after 7 days” value ([1]; Example 2, 2 ml formulated per kg seed) was 14%. The “Mean number of damaged seeds per pot” value [1, 4] was 2.5, the “Mean number of dead slugs per pot” value [1, 4] was 0.3 and the “Mean number of damaged seeds per pot” value [1, 5] was 4.8. The “Mean number of dead slugs per pot” value [1, 5] was 0.5, the “Mean number of damaged seeds per pot” value [1, 6] was 5.5 and the “Mean number of dead slugs per pot” value [1, 6] was 2.3. For the same molecule, the “percentage of damaged seeds after 7 days” value ([1]; Example 2, 4 ml formulated per kg seed) was 9%, the “Mean number of damaged seeds per pot” value [1, 7] was 1.8 and the “Mean number of dead slugs per pot” value [1, 7] was 0. The “Mean number of damaged seeds per pot” value [1, 8] was 2.0, the “Mean number of dead slugs per pot” value [1, 8] was 1.8 and the “Mean number of damaged seeds per pot” value [1, 9] was 3.5. The “Mean number of dead slugs per pot” value [1, 9] was 3.3, the “number of fecal pellets per pot relative to the untreated control” value [1, 10] was “significant reduction in the number of fecal pellets” and the “plants present relative to the untreated seed” value [1, 10] was “significantly more plants present”. For the same molecule, the “number of damaged seeds relative to the untreated seed” value ([1]; Example 2, two days after the start) was “significant reduction in the number of damaged seeds”, the “Mean number of fecal pellets per pot” value ([1]; dosage 2 ml, 2 days) was 1 and the “Mean number of plants present per pot” value ([1]; dosage 2 ml, 2 days) was 9.0. For the same molecule, the “Mean number of fecal pellets per pot” value ([1]; dosage 2 ml, 3 days) was 9, the “Mean number of plants present per pot” value ([1]; dosage 2 ml, 3 days) was 22.5 and the “Mean number of fecal pellets per pot” value ([1]; dosage 2 ml, 7 days) was 20. The “Mean number of plants present per pot” value ([1]; dosage 2 ml, 7 days) was 34.0, the “number of utilizable plants after 7 days” value ([1]; dosage 2 ml, 7 days) was 26.8 and the “Mean number of fecal pellets per pot” value ([1]; dosage 4 ml, 2 days) was 2. For the same molecule, the “Mean number of plants present per pot” value ([1]; dosage 4 ml, 2 days) was 28.3, the “Mean number of fecal pellets per pot” value ([1]; dosage 4 ml, 3 days) was 7 and the “Mean number of plants present per pot” value ([1]; dosage 4 ml, 3 days) was 33.3. For the same molecule, the “Mean number of fecal pellets per pot” value ([1]; dosage 4 ml, 7 days) was 11, the “Mean number of plants present per pot” value ([1]; dosage 4 ml, 7 days) was 34.5 and the “number of utilizable plants after 7 days” value ([1]; dosage 4 ml, 7 days) was 32.5. The “number of utilizable plants after 14 days” value (“number … after 14 days” for short) ([2]; 2 ml formulated per kg seed) was 15.5, the “percentage of damaged seeds after 14 days” value (“percentage … after 14 days” for short) ([2]; 2 ml formulated per kg seed) was 44% and the “Mean number of damaged seeds per pot” value [2, 11] was 2.0. The “Mean number of dead slugs per pot” value [2, 11] was 0.3, the “Mean number fecal pellets per pot” value [2, 12] was 18 and the “Mean number of damaged seeds per pot” value [2, 12] was 5.3. For the same molecule, the “Mean number of dead slugs per pot” value [2, 12] was 0.3, the “Mean number of plants present per pot” value [2, 12] was 10.5 and the “Mean number fecal pellets per pot” value [2, 13] was 43. The “Mean number of damaged seeds per pot” value [2, 13] was 19.3, the “Mean number of dead slugs per pot” value [2, 13] was 0.3 and the “Mean number of plants present per pot” value [2, 13] was 16.5. For the same molecule, the “Mean number fecal pellets per pot” value [2, 14] was 47, the “Mean number of damaged seeds per pot” value [2, 14] was 17.0 and the “Mean number of dead slugs per pot” value [2, 14] was 0.3. For the same molecule, the “Mean number of plants present per pot” value [2, 14] was 19.8, the “Mean number fecal pellets per pot” value [2, 15] was 50 and the “Mean number of damaged seeds per pot” value [2, 15] was 17.8. The “Mean number of dead slugs per pot” value [2, 15] was 0.5, the “Mean number of plants present per pot” value [2, 15] was 21.3 and the “number … after 14 days” value ([2]; 4 ml formulated per kg seed) was 19.8. For the same molecule, the “percentage … after 14 days” value ([2]; 4 ml formulated per kg seed) was 13%, the “Mean number of damaged seeds per pot” value [2, 16] was 1.3 and the “Mean number of dead slugs per pot” value [2, 16] was 0. The “Mean number fecal pellets per pot” value [2, 17] was 16, the “Mean number of damaged seeds per pot” value [2, 17] was 3.3 and the “Mean number of dead slugs per pot” value [2, 17] was 0. The “Mean number of plants present per pot” value [2, 17] was 7.8, the “Mean number fecal pellets per pot” value [2, 18] was 34 and the “Mean number of damaged seeds per pot” value [2, 18] was 10.8. The “Mean number of dead slugs per pot” value [2, 18] was 0.3, the “Mean number of plants present per pot” value [2, 18] was 22.8 and the “Mean number fecal pellets per pot” value [2, 19] was 35. For the same molecule, the “Mean number of damaged seeds per pot” value [2, 19] was 4.8, the “Mean number of dead slugs per pot” value [2, 19] was 0.3 and the “Mean number of plants present per pot” value [2, 19] was 30.3. The “Mean number fecal pellets per pot” value [2, 20] was 36, the “Mean number of damaged seeds per pot” value [2, 20] was 5.0 and the “Mean number of dead slugs per pot” value [2, 20] was 1.8. The “Mean number of plants present per pot” value [2, 20] was 29.8, the “number … after 14 days” value ([2]; 8 ml formulated per kg seed) was 33.0 and the “percentage … after 14 days” value ([2]; 8 ml formulated per kg seed) was 8%. The “Mean number of damaged seeds per pot” value [2, 21] was 1.8, the “Mean number of dead slugs per pot” value [2, 21] was 0 and the “Mean number fecal pellets per pot” value [2, 22] was 6. The “Mean number of damaged seeds per pot” value [2, 22] was 2.5, the “Mean number of dead slugs per pot” value [2, 22] was 0.3 and the “Mean number of plants present per pot” value [2, 22] was 4.3. The “Mean number fecal pellets per pot” value [2, 23] was 23, the “Mean number of damaged seeds per pot” value [2, 23] was 4.5 and the “Mean number of dead slugs per pot” value [2, 23] was 0.5. For the same molecule, the “Mean number of plants present per pot” value [2, 23] was 32.0, the “Mean number fecal pellets per pot” value [2, 24] was 27 and the “Mean number of damaged seeds per pot” value [2, 24] was 3.3. For the same molecule, the “Mean number of dead slugs per pot” value [2, 24] was 1.3, the “Mean number of plants present per pot” value [2, 24] was 33.8 and the “Mean number fecal pellets per pot” value [2, 25] was 27. For the same molecule, the “Mean number of damaged seeds per pot” value [2, 25] was 3.3, the “Mean number of dead slugs per pot” value [2, 25] was 1.5 and the “Mean number of plants present per pot” value [2, 25] was 34.8. The “effect on the slug population” value ([2]; Example 1) was “little effect on the slug population”, the “damaged seeds relative to the untreated pots” value ([2]; Example 1, 2, 4 and 8 ml per kg of seed, from day 3 after sowing) was “significantly less damaged seeds” and the “plants present relative to the untreated pots” value ([2]; Example 1, 2, 4 or 8 ml per kg of seed, after 3 (only 2 ml), 7, 10 and 14 days) was “significantly more plants present”. The “fecal pellets relative to the untreated seed” value ([2]; Example 1, at each dosage and at each observation) was “significantly less fecal pellets”, the “protection / slug controlling effect (conclusion)” value ([2]; Example 1, winter wheat seed treatment, dosages tested) was “good protection to both seeds and plants” and the Percentage germinated ([3]; 2 ml formulated per kg seed) was 61%. It also gave a Percentage germinated ([3]; 4 ml formulated per kg seed) of 63% and a Percentage germinated ([3]; 8 ml formulated per kg seed) of 27%.
